Source: patent publication US9498483B2, “2,3,5-trisubstituted thiophene compounds and uses thereof” (priority 2010, dated 2016)

Experiments:
HCV polymerase = molecular target: T1, HCV polymerase (Hepatitis C virus genotype 1b, UniProt Q9WMX2); experiment: Polymerase assay of Biological Example 1 (IC50 values of Table 3); format: biochemical; conditions: IC50 values of Table 3, polymerase assay of Biological Example 1; read-out: NS5B-enzyme3
T1 construct: (His)6 (C); made in house; host or cells: XL-1 cells (E. coli, by own knowledge)
Excerpt: A number of assays have been published to assess these activities. A general method that assesses the gross increase of HCV virus in culture was disclosed in U.S. Pat. No. 5,738,985 to Miles et al. In vitro assays have been reported in Ferrari et al. Jnl. of Vir., 73:1649-1654, 1999; Ishii et al., Hepatology, 29:1227-1235, 1999; Lohmann et al., Jnl of Bio. Chem., 274:10807-10815, 1999; and Yamashita et al., Jnl. of Bio. Chem., 273:15479-15486, 1998.
WO 97/12033, filed on Sep. 27, 1996, by Emory University, listing C. Hagedorn and A. Reinoldus as inventors, which claims priority to U.S. Provisional Patent Application Ser. No. 60/004,383, filed on September 1995, described an HCV polymerase assay that can be used to evaluate the activity of the of the compounds described herein. Another HCV polymerase assay has been reported by Bartholomeusz, et al., Hepatitis C Virus (HCV) RNA polymerase assay using cloned HCV non-structural proteins; Antiviral Therapy 1996:1 (Supp 4) 18-24.

[1] = test system: HCV replicon I389luc-ubi-neo/NS3-3′/ET in ET (Huh-lucubineo-ET) cells; experiment: Replicon assay (Biological Example 2), luciferase readout; format: cell-based; conditions: Hepatitis C virus
Method: A cell line, ET (Huh-lucubineo-ET) was used for screening of compounds for inhibiting HCV RNA dependent RNA polymerase. The ET cell line was stably transfected with RNA transcripts harboring a I389luc-ubi-neo/NS3-3′/ET; replicon with firefly luciferase-ubiquitin-neomycin phosphotransferase fusion protein and EMCV-IRES driven NS3-5B polyprotein containing the cell culture adaptive mutations (E1202G; T12801; K1846T) (Krieger at al, 2001 and unpublished). The ET cells were grown in DMEM (Dulbeco's Modified Eagle's Medium), supplemented with 10% fetal calf serum, 2 mM Glutamine, Penicillin (100 IU/mL)/Streptomycin (100 μg/mL), 1× nonessential amino acids, and 250 μg/mL G418 (“Geneticin”). Reagents were all available through Life Technologies (Bethesda, Md.). The cells were plated at 0.5-1.0×10^4 cells/well in the 96 well plates and incubated for 24 hrs before adding test compound. The compounds were added to the cells to achieve a final concentration of 0.1 nM to 50 μM and a final DMSO (dimethylsulfoxide) concentration of 0.5%. Luciferase activity was measured 48 hours later by adding a lysis buffer and the substrate (Catalog number Glo-lysis buffer E2661 and Bright-Glo luciferase system E2620 Promega, Madison, Wis.). Cells should not be too confluent during the assay. Percent inhibition of replication data was plotted relative to no compound control. To determine the EC50 (effective concentration at which 50% of the maximum inhibition was observed), a 10 point, 3-fold serial dilution for each compound was used, which spans a concentration range of […]. EC50 values were calculated by fitting % inhibition at each concentration to the following equation: % inhibition=100%/[(EC50/[I])^b+1] where b was Hill's coefficient.
In other aspects the EC50 was equal to or less than 10 μM. In still other aspects the EC50 was equal to or less than 1 μM.

[2] = ET cells, luciferase activity 48 hours after compound

Row | SMILES | IC50 (HCV polymerase) [µM] | IC50 [1, 2] [µM] | IC50 ([1]; between 100 nM and 5.0 uM) [µM]
1 | Cc1noc(C)c1S(=O)(=O)N1CC(=O)N(c2cc(-c3ccccc3)sc2C(=O)O)C(C2CCCCC2)C1 (stereo not drawn) [Compound 32, 3-[2-Cyclohexyl-4-(3,5-dimethyl-isoxazole-4-sulfonyl)-6-oxo-piperazin-1-yl]-5-phenyl-thiophene-2-carboxylic acid] | 0.241 | ≥ 5 | –
2 | Cc1oc(C)c(S(=O)(=O)N2CC(=O)N(c3cc(-c4ccccc4)sc3C(=O)O)C(C3CCCCC3)C2)c1C(=O)O (stereo not drawn) [Compound 33, 4-[4-(2-Carboxy-5-phenyl-thiophen-3-yl)-3-cyclohexyl-5-oxo-piperazine-1-sulfonyl]-2,5-dimethyl-furan-3-carboxylic acid] | 0.038 | ≥ 5 | –
3 | CC(C)(C)C#Cc1cc(N2C(=O)CCC[C@@H]2C2CCCCC2)c(C(=O)O)s1 [Compound 34, 3-((R)-2-Cyclohexyl-6-oxo-piperidin-1-yl)-5-(3,3-dimethyl-but-1-ynyl)-thiophene-2-carboxylic acid] | 1.05 | ≥ 5 | –
4 | CC(C)(C)C#Cc1cc(N2C(=O)CCC[C@H]2C2CCCCC2)c(C(=O)O)s1 [Compound 35, 3-((S)-2-Cyclohexyl-6-oxo-piperidin-1-yl)-5-(3,3-dimethyl-but-1-ynyl)-thiophene-2-carboxylic acid] | 0.0095 | ≤ 0.1 | –
5 | CC1CCN(S(=O)(=O)N2CC(=O)N(c3cc(-c4ccccc4)sc3C(=O)O)C(C3CCCCC3)C2)CC1 (stereo not drawn) [Compound 36, 3-[2-Cyclohexyl-4-(4-methyl-piperidine-1-sulfonyl)-6-oxo-piperazin-1-yl]-5-phenyl-thiophene-2-carboxylic acid] | 0.058 | – | 0.1 to 5
6 | CC(C)S(=O)(=O)N1CC(=O)N(c2cc(-c3ccccc3)sc2C(=O)O)C(C2CCCCC2)C1 (stereo not drawn) [Compound 37, 3-[2-Cyclohexyl-6-oxo-4-(propane-2-sulfonyl)-piperazin-1-yl]-5-phenyl-thiophene-2-carboxylic acid] | 0.072 | – | 0.1 to 5
7 | CC(C)CS(=O)(=O)N1CC(=O)N(c2cc(-c3ccccc3)sc2C(=O)O)C(C2CCCCC2)C1 (stereo not drawn) [Compound 38, 3-[2-Cyclohexyl-4-(2-methyl-propane-1-sulfonyl)-6-oxo-piperazin-1-yl]-5-phenyl-thiophene-2-carboxylic acid] | 0.065 | – | 0.1 to 5
8 | O=C(O)c1sc(-c2ccccc2)cc1N1C(=O)CN(S(=O)(=O)CCc2ccccc2)CC1C1CCCCC1 (stereo not drawn) [Compound 39, 3-[2-Cyclohexyl-6-oxo-4-(2-phenyl-ethanesulfonyl)-piperazin-1-yl]-5-phenyl-thiophene-2-carboxylic acid] | 0.051 | – | 0.1 to 5
9 | O=C(O)c1sc(-c2ccccc2)cc1N1C(=O)CN(S(=O)(=O)c2ccccc2F)CC1C1CCCCC1 (stereo not drawn) [Compound 40, 3-[2-Cyclohexyl-4-(2-fluoro-benzenesulfonyl)-6-oxo-piperazin-1-yl]-5-phenyl-thiophene-2-carboxylic acid] | 0.013 | – | 0.1 to 5
10 | O=C(O)CCS(=O)(=O)N1CC(=O)N(c2cc(-c3ccccc3)sc2C(=O)O)C(C2CCCCC2)C1 (stereo not drawn) [Compound 41, 3-[4-(2-Carboxy-ethanesulfonyl)-2-cyclohexyl-6-oxo-piperazin-1-yl]-5-phenyl-thiophene-2-carboxylic acid] | 0.218 | ≥ 5 | –
11 | O=C(O)c1sc(-c2ccccc2)cc1N1C(=O)CN(S(=O)(=O)C2CCCC2)CC1C1CCCCC1 (stereo not drawn) [Compound 42, 3-(2-Cyclohexyl-4-cyclopentanesulfonyl-6-oxo-piperazin-1-yl)-5-phenyl-thiophene-2-carboxylic acid] | 0.148 | – | 0.1 to 5
12 | CCC(C)S(=O)(=O)N1CC(=O)N(c2cc(-c3ccccc3)sc2C(=O)O)C(C2CCCCC2)C1 (stereo not drawn) [Compound 45, 3-[4-(Butane-2-sulfonyl)-2-cyclohexyl-6-oxo-piperazin-1-yl]-5-phenyl-thiophene-2-carboxylic acid] | 4.9 | – | 0.1 to 5
13 | O=C(O)c1sc(-c2ccccc2)cc1N1C(=O)CN(S(=O)(=O)C2CCCCC2)CC1C1CCCCC1 (stereo not drawn) [Compound 46, 3-(4-Cyclohexanesulfonyl-2-cyclohexyl-6-oxo-piperazin-1-yl)-5-phenyl-thiophene-2-carboxylic acid] | 0.063 | – | 0.1 to 5
14 | NCCS(=O)(=O)N1CC(=O)N(c2cc(-c3ccccc3)sc2C(=O)O)C(C2CCCCC2)C1 (stereo not drawn) [Compound 47, 3-[4-(2-Amino-ethanesulfonyl)-2-cyclohexyl-6-oxo-piperazin-1-yl]-5-phenyl-thiophene-2-carboxylic acid] | 0.088 | ≥ 5 | 0.1 to 5
15 | O=C(O)c1sc(-c2cccc(F)c2)cc1N1C(=O)CCCC1C1CCCCC1 (stereo not drawn) [Compound 48, 3-(2-Cyclohexyl-6-oxo-piperidin-1-yl)-5-(3-fluoro-phenyl)-thiophene-2-carboxylic acid] | 0.187 | – | 0.1 to 5
16 | Cc1cccc(S(=O)(=O)N2CC(=O)N(c3cc(-c4ccccc4)sc3C(=O)O)C(C3CCCCC3)C2)c1 (stereo not drawn) [Compound 49, 3-[2-Cyclohexyl-6-oxo-4-(toluene-3-sulfonyl)-piperazin-1-yl]-5-phenyl-thiophene-2-carboxylic acid] | 0.015 | – | 0.1 to 5
17 | CC(=O)Nc1ccc(S(=O)(=O)N2CC(=O)N(c3cc(-c4ccccc4)sc3C(=O)O)C(C3CCCCC3)C2)cc1 (stereo not drawn) [Compound 50, 3-[4-(4-Acetylamino-benzenesulfonyl)-2-cyclohexyl-6-oxo-piperazin-1-yl]-5-phenyl-thiophene-2-carboxylic acid] | 0.007 | – | 0.1 to 5
18 | O=C(O)c1sc(-c2ccccc2)cc1N1C(=O)CN(S(=O)(=O)c2ccc(Oc3ccccc3)cc2)CC1C1CCCCC1 (stereo not drawn) [Compound 51, 3-[2-Cyclohexyl-6-oxo-4-(4-phenoxy-benzenesulfonyl)-piperazin-1-yl]-5-phenyl-thiophene-2-carboxylic acid] | 0.011 | – | 0.1 to 5
19 | O=C(O)c1sc(-c2ccccc2)cc1N1C(=O)CN(S(=O)(=O)c2ccccc2)CC1C1CCCCC1 (stereo not drawn) [Compound 52, 3-(4-Benzenesulfonyl-2-cyclohexyl-6-oxo-piperazin-1-yl)-5-phenyl-thiophene-2-carboxylic acid] | 0.015 | – | 0.1 to 5
20 | O=C(O)c1sc(-c2ccccc2)cc1N1C(=O)CN(S(=O)(=O)c2ccc(OC(F)(F)F)cc2)CC1C1CCCCC1 (stereo not drawn) [Compound 53] | 0.024 | – | 0.1 to 5
21 | O=C(O)c1sc(-c2ccccc2)cc1N1C(=O)CN(S(=O)(=O)c2ccc(C(F)(F)F)cc2)CC1C1CCCCC1 (stereo not drawn) [Compound 54, 3-[2-Cyclohexyl-6-oxo-4-(4-trifluoromethyl-benzenesulfonyl)-piperazin-1-yl]-5-phenyl-thiophene-2-carboxylic acid] | 0.018 | – | 0.1 to 5
22 | CCc1ccc(S(=O)(=O)N2CC(=O)N(c3cc(-c4ccccc4)sc3C(=O)O)C(C3CCCCC3)C2)cc1 (stereo not drawn) [Compound 56, 3-[2-Cyclohexyl-4-(4-ethyl-benzenesulfonyl)-6-oxo-piperazin-1-yl]-5-phenyl-thiophene-2-carboxylic acid] | 0.0071 | – | 0.1 to 5
23 | Cn1ccc2cccc(S(=O)(=O)N3CC(=O)N(c4cc(-c5ccccc5)sc4C(=O)O)C(C4CCCCC4)C3)c21 (stereo not drawn) [Compound 57, 3-[2-Cyclohexyl-4-(1-methyl-1H-indole-7-sulfonyl)-6-oxo-piperazin-1-yl]-5-phenyl-thiophene-2-carboxylic acid] | 0.26 | ≥ 5 | –
24 | Cc1ccccc1S(=O)(=O)N1CC(=O)N(c2cc(-c3ccccc3)sc2C(=O)O)C(C2CCCCC2)C1 (stereo not drawn) [Compound 58, 3-[2-Cyclohexyl-6-oxo-4-(toluene-2-sulfonyl)-piperazin-1-yl]-5-phenyl-thiophene-2-carboxylic acid] | 0.088 | – | 0.1 to 5
25 | O=C(O)c1sc(-c2ccccc2)cc1N1C(=O)CN(S(=O)(=O)c2cccc(OC(F)(F)F)c2)CC1C1CCCCC1 (stereo not drawn) [Compound 59] | 0.039 | – | 0.1 to 5
